{"source": "patent US9149038B2", "about": "“4-amino-6-(heterocyclic)picolinates and 6-amino-2-(heterocyclic)pyrimidine-4-carboxylates and their use as herbicides” (Dow AgroSciences LLC, priority 2013, dated 2015)", "key": {"[1]": {"system": "Key Broadleaf Weed and Crop Species", "assay": "Post-Emergent Test II: postemergent herbicidal activity, visual rating after 14 d (Table 7)", "format": "in vivo", "conditions": "post-emergence, 336 h; for pest or weed control at 35 g/ha: 35 g ai/ha; for pest or weed control at 70 g/ha: 70 g ai/ha; for pest or weed control at 140 g/ha: 140 g ai/ha", "summary_of_the_method": "(§1)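 Visual scoring at 14 d, 0 (no injury) to 100 (complete kill), relative to untreated plants. Postemergent overhead track-sprayer application, 187 L/ha, at a top rate plus serial ½×–1/16× rates, to plants grown 7–21 d at about 23–29° C day under a 15 h photoperiod, then subirrigated.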"}, "[2]": {"system": "Key Grass and Sedge Weeds as well as Grass Crops", "assay": "Post-Emergent Test II: postemergent herbicidal activity, visual rating after 14 d (Table 8)", "format": "in vivo", "conditions": "post-emergence, 336 h; for pest or weed control at 35 g/ha: 35 g ai/ha; for pest or weed control at 70 g/ha: 70 g ai/ha; for pest or weed control at 140 g/ha: 140 g ai/ha", "summary_of_the_method": "as §1"}, "[3]": {"conditions": "ABUTH: velvetleaf (Abutilon theophrasti), read-out: Visual Growth Reduction (%) 14 Days After Application ABUTH"}, "[4]": {"conditions": "AMARE: redroot pigweed (Amaranthus retroflexus), read-out: Visual Growth Reduction (%) 14 Days After Application AMARE"}, "[5]": {"conditions": "BRSNN: oilseed rape, canola (Brassica napus), read-out: Visual Growth Reduction (%) 14 Days After Application BRSNN"}, "[6]": {"conditions": "CHEAL: lambsquarters (Chenopodium album), read-out: Visual Growth Reduction (%) 14 Days After Application CHEAL"}, "[7]": {"conditions": "EPHHL: wild poinsettia (Euphorbia heterophylla), read-out: Visual Growth Reduction (%) 14 Days After Application EPHHL"}, "[8]": {"conditions": "HELAN: sunflower (Helianthus annuus), read-out: Visual Growth Reduction (%) 14 Days After Application HELAN"}, "[9]": {"conditions": "barnyardgrass (Echinochloa crus-galli), read-out: Visual Growth Reduction (%) 14 Days After Application, ECHCG"}, "[10]": {"conditions": "giant foxtail (Setaria faberi), read-out: Visual Growth Reduction (%) 14 Days After Application, SETFA"}, "[11]": {"conditions": "maize, corn (Zea mays), read-out: Visual Growth Reduction (%) 14 Days After Application, ZEAMX"}, "[12]": {"conditions": "rice (Oryza sativa), read-out: Visual Growth Reduction (%) 14 Days After Application, ORYSA"}, "[13]": {"conditions": "wheat, spring (Triticum aestivum), read-out: Visual Growth Reduction (%) 14 Days After Application, TRZAS"}, "[14]": {"conditions": "yellow nutsedge (Cyperus esculentus), read-out: Visual Growth Reduction (%) 14 Days After Application, CYPES"}}, "note": "Where two headings read alike, the source gives them in different places.", "data": [{"smiles": "COC(=O)c1nc(-c2c(F)ccc3c2OC(F)(F)O3)cc(N)c1Cl", "note": "[Compound 90, Methyl 4-amino-3-chloro-6-(2,2,5-trifluorobenzo[d][1,3]dioxol-4-yl)picolinate]", "values": [{"measurement": "pest or weed control at 35 g/ha", "setting": "[1]; [3]", "value": "60 to 74", "unit": "%"}, {"measurement": "pest or weed control at 70 g/ha", "setting": "[1]; [3]", "value": "75 to 84", "unit": "%"}, {"measurement": "pest or weed control at 140 g/ha", "setting": "[1]; [3]", "value": "85 to 94", "unit": "%"}, {"measurement": "pest or weed control at 35 g/ha", "setting": "[1]; [4]", "value": "95 to 100", "unit": "%"}, {"measurement": "pest or weed control at 70 g/ha", "setting": "[1]; [4]", "value": "95 to 100", "unit": "%"}, {"measurement": "pest or weed control at 140 g/ha", "setting": "[1]; [4]", "value": "95 to 100", "unit": "%"}, {"measurement": "pest or weed control at 35 g/ha", "setting": "[1]; [5]", "value": "0 to 29", "unit": "%"}, {"measurement": "pest or weed control at 70 g/ha", "setting": "[1]; [5]", "value": "0 to 29", "unit": "%"}, {"measurement": "pest or weed control at 140 g/ha", "setting": "[1]; [5]", "value": "60 to 74", "unit": "%"}, {"measurement": "pest or weed control at 35 g/ha", "setting": "[1]; [6]", "value": "85 to 94", "unit": "%"}, {"measurement": "pest or weed control at 70 g/ha", "setting": "[1]; [6]", "value": "95 to 100", "unit": "%"}, {"measurement": "pest or weed control at 140 g/ha", "setting": "[1]; [6]", "value": "95 to 100", "unit": "%"}, {"measurement": "pest or weed control at 35 g/ha", "setting": "[1]; [7]", "value": "0 to 29", "unit": "%"}, {"measurement": "pest or weed control at 70 g/ha", "setting": "[1]; [7]", "value": "0 to 29", "unit": "%"}, {"measurement": "pest or weed control at 140 g/ha", "setting": "[1]; [7]", "value": "0 to 29", "unit": "%"}, {"measurement": "pest or weed control at 35 g/ha", "setting": "[1]; [8]", "value": "0 to 29", "unit": "%"}, {"measurement": "pest or weed control at 70 g/ha", "setting": "[1]; [8]", "value": "0 to 29", "unit": "%"}, {"measurement": "pest or weed control at 140 g/ha", "setting": "[1]; [8]", "value": "0 to 29", "unit": "%"}, {"measurement": "pest or weed control at 35 g/ha", "setting": "[2]; [9]", "value": "0 to 29", "unit": "%"}, {"measurement": "pest or weed control at 70 g/ha", "setting": "[2]; [9]", "value": "0 to 29", "unit": "%"}, {"measurement": "pest or weed control at 140 g/ha", "setting": "[2]; [9]", "value": "0 to 29", "unit": "%"}, {"measurement": "pest or weed control at 35 g/ha", "setting": "[2]; [10]", "value": "0 to 29", "unit": "%"}, {"measurement": "pest or weed control at 70 g/ha", "setting": "[2]; [10]", "value": "0 to 29", "unit": "%"}, {"measurement": "pest or weed control at 140 g/ha", "setting": "[2]; [10]", "value": "0 to 29", "unit": "%"}, {"measurement": "pest or weed control at 35 g/ha", "setting": "[2]; [11]", "value": "0 to 29", "unit": "%"}, {"measurement": "pest or weed control at 70 g/ha", "setting": "[2]; [11]", "value": "0 to 29", "unit": "%"}, {"measurement": "pest or weed control at 140 g/ha", "setting": "[2]; [11]", "value": "0 to 29", "unit": "%"}, {"measurement": "pest or weed control at 35 g/ha", "setting": "[2]; [12]", "value": "0 to 29", "unit": "%"}, {"measurement": "pest or weed control at 70 g/ha", "setting": "[2]; [12]", "value": "0 to 29", "unit": "%"}, {"measurement": "pest or weed control at 140 g/ha", "setting": "[2]; [12]", "value": "0 to 29", "unit": "%"}, {"measurement": "pest or weed control at 35 g/ha", "setting": "[2]; [13]", "value": "0 to 29", "unit": "%"}, {"measurement": "pest or weed control at 70 g/ha", "setting": "[2]; [13]", "value": "0 to 29", "unit": "%"}, {"measurement": "pest or weed control at 140 g/ha", "setting": "[2]; [13]", "value": "0 to 29", "unit": "%"}, {"measurement": "pest or weed control at 35 g/ha", "setting": "[2]; [14]", "value": "0 to 29", "unit": "%"}, {"measurement": "pest or weed control at 70 g/ha", "setting": "[2]; [14]", "value": "0 to 29", "unit": "%"}, {"measurement": "pest or weed control at 140 g/ha", "setting": "[2]; [14]", "value": "0 to 29", "unit": "%"}]}, {"smiles": "Nc1cc(-c2c(F)ccc3c2OC(F)(F)O3)nc(C(=O)O)c1Cl", "note": "[Compound 91]", "values": [{"measurement": "pest or weed control at 35 g/ha", "setting": "[1]; [3]", "value": "60 to 74", "unit": "%"}, {"measurement": "pest or weed control at 70 g/ha", "setting": "[1]; [3]", "value": "75 to 84", "unit": "%"}, {"measurement": "pest or weed control at 140 g/ha", "setting": "[1]; [3]", "value": "75 to 84", "unit": "%"}, {"measurement": "pest or weed control at 35 g/ha", "setting": "[1]; [4]", "value": "95 to 100", "unit": "%"}, {"measurement": "pest or weed control at 70 g/ha", "setting": "[1]; [4]", "value": "95 to 100", "unit": "%"}, {"measurement": "pest or weed control at 140 g/ha", "setting": "[1]; [4]", "value": "95 to 100", "unit": "%"}, {"measurement": "pest or weed control at 35 g/ha", "setting": "[1]; [5]", "value": "0 to 29", "unit": "%"}, {"measurement": "pest or weed control at 70 g/ha", "setting": "[1]; [5]", "value": "45 to 59", "unit": "%"}, {"measurement": "pest or weed control at 140 g/ha", "setting": "[1]; [5]", "value": "60 to 74", "unit": "%"}, {"measurement": "pest or weed control at 35 g/ha", "setting": "[1]; [6]", "value": "95 to 100", "unit": "%"}, {"measurement": "pest or weed control at 70 g/ha", "setting": "[1]; [6]", "value": "95 to 100", "unit": "%"}, {"measurement": "pest or weed control at 140 g/ha", "setting": "[1]; [6]", "value": "95 to 100", "unit": "%"}, {"measurement": "pest or weed control at 35 g/ha", "setting": "[1]; [7]", "value": "0 to 29", "unit": "%"}, {"measurement": "pest or weed control at 70 g/ha", "setting": "[1]; [7]", "value": "0 to 29", "unit": "%"}, {"measurement": "pest or weed control at 140 g/ha", "setting": "[1]; [7]", "value": "0 to 29", "unit": "%"}, {"measurement": "pest or weed control at 35 g/ha", "setting": "[1]; [8]", "value": "0 to 29", "unit": "%"}, {"measurement": "pest or weed control at 70 g/ha", "setting": "[1]; [8]", "value": "0 to 29", "unit": "%"}, {"measurement": "pest or weed control at 140 g/ha", "setting": "[1]; [8]", "value": "0 to 29", "unit": "%"}, {"measurement": "pest or weed control at 35 g/ha", "setting": "[2]; [9]", "value": "0 to 29", "unit": "%"}, {"measurement": "pest or weed control at 70 g/ha", "setting": "[2]; [9]", "value": "0 to 29", "unit": "%"}, {"measurement": "pest or weed control at 140 g/ha", "setting": "[2]; [9]", "value": "0 to 29", "unit": "%"}, {"measurement": "pest or weed control at 35 g/ha", "setting": "[2]; [10]", "value": "0 to 29", "unit": "%"}, {"measurement": "pest or weed control at 70 g/ha", "setting": "[2]; [10]", "value": "0 to 29", "unit": "%"}, {"measurement": "pest or weed control at 140 g/ha", "setting": "[2]; [10]", "value": "0 to 29", "unit": "%"}, {"measurement": "pest or weed control at 35 g/ha", "setting": "[2]; [11]", "value": "0 to 29", "unit": "%"}, {"measurement": "pest or weed control at 70 g/ha", "setting": "[2]; [11]", "value": "0 to 29", "unit": "%"}, {"measurement": "pest or weed control at 140 g/ha", "setting": "[2]; [11]", "value": "0 to 29", "unit": "%"}, {"measurement": "pest or weed control at 35 g/ha", "setting": "[2]; [12]", "value": "0 to 29", "unit": "%"}, {"measurement": "pest or weed control at 70 g/ha", "setting": "[2]; [12]", "value": "0 to 29", "unit": "%"}, {"measurement": "pest or weed control at 140 g/ha", "setting": "[2]; [12]", "value": "0 to 29", "unit": "%"}, {"measurement": "pest or weed control at 35 g/ha", "setting": "[2]; [13]", "value": "0 to 29", "unit": "%"}, {"measurement": "pest or weed control at 70 g/ha", "setting": "[2]; [13]", "value": "0 to 29", "unit": "%"}, {"measurement": "pest or weed control at 140 g/ha", "setting": "[2]; [13]", "value": "0 to 29", "unit": "%"}, {"measurement": "pest or weed control at 35 g/ha", "setting": "[2]; [14]", "value": "0 to 29", "unit": "%"}, {"measurement": "pest or weed control at 70 g/ha", "setting": "[2]; [14]", "value": "0 to 29", "unit": "%"}, {"measurement": "pest or weed control at 140 g/ha", "setting": "[2]; [14]", "value": "0 to 29", "unit": "%"}]}]}
